Test results reported in patent US9765105B2, “Macrolide compound” (Pulike Biological Engineering, Inc., priority 2013, dated 2017).

Experiments:
[1] = tested on: Streptococcus pneumoniae CMCC 31203; test: in vivo antibacterial test, survival of infected mice; parameters: species or system BALB/c mice; conditions: mice infected i.p. with Streptococcus pneumoniae; 5 mg per kg subcutaneous for 3 consecutive days; observed until the seventh day
[2] = tested on: Streptococcus equines CVCC556; test: in vitro susceptibility, MIC by mini broth dilution; assay type: cell-based; conditions: strain CVCC556
In short: (§1)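 Veterinary bacterial strains were grown twice on solid medium at 35 °C for 20 h. Inocula were diluted 1:200 in broth and tested against 11 two-fold compound dilutions (DMSO), in paired rows, by mini broth dilution per NCCLS guidance. MIC was the readout.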

[3] = tested on: Actinobacillus pleuropneumoniae CVCC262; test: as above; assay type: cell-based; conditions: strain CVCC262
In short: as §1

[4] = tested on: Pasteurella multocida CVCC399; test: as above; assay type: cell-based; conditions: strain CVCC399
In short: as §1

[5] = tested on: Haemophilus parasuis; test: as above; assay type: cell-based
In short: as §1

[6] = tested on: Staphylococcus aureus CVCC26003; test: as above; assay type: cell-based; conditions: strain CVCC26003
In short: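 S. aureus CVCC26003 was revived and subcultured twice, 20 h each at 35° C, on solid medium, then diluted 1:200 in CAMHB liquid medium. Compounds received an 11-step two-fold DMSO dilution in parallel duplicate rows. MIC was read by mini broth dilution per NCCLS guidance.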

| MIC values, Streptococcus equines CVCC556 [2] | MIC values, Actinobacillus pleuropneumoniae CVCC262 [3] | MIC values, Pasteurella multocida CVCC399 [4] | MIC values, Haemophilus parasuis [5] | MIC values, Staphylococcus aureus CVCC26003 [6] | Compound | Animal survival rate [1] | Animal survival rate (surviving/total animals) [1] |
| --- | --- | --- | --- | --- | --- | --- | --- |
| 0.5 ug/mi | 2 ug/mi | 0.25 ug/mi | 0.25 ug/mi | 0.5 ug/mi | CC[C@H]1OC(=O)[C@H](C)[C@@H](O[C@H]2C[C@@](C)(OC)[C@](O)(CNc3ccc(OC)cc3)[C@H](C)O2)[C@H](C)[C@@H](O[C@@H]2O[C@H](C)C[C@H](N(C)C)[C@H]2O)[C@](C)(O)C[C@@H](C)NC[C@H](C)[C@@H](O)[C@]1(C)O [syzx-83, (2R,3S,4R,5S,8R,10R,11R,12S,13S,14R)-13-[(2,6-dideoxy-3-C-methyl-3-O-methyl-4-C-[(p-methoxyphenyl-amino)-methyl]-α-L-ribopyranosyl)oxy]-2-ethyl-3,4,10-trihydroxy-3,5,8,10,12,14-hexamethyl-11-[[3,4,6-trideoxy-3-(dimethylamino)-β-D-xylo-hexopyranosy]oxy]-1-oxa-7-azacyclopentadecan-15-one] | – | – |
| ≦0.25 ug/mi | 2 ug/mi | 0.25 ug/mi | ≦0.25 ug/mi | ≦0.25 ug/mi | CC[C@H]1OC(=O)[C@H](C)[C@@H](O[C@H]2C[C@@](C)(OC)[C@](O)(CNCc3ccc(Cl)cc3)[C@H](C)O2)[C@H](C)[C@@H](O[C@@H]2O[C@H](C)C[C@H](N(C)C)[C@H]2O)[C@](C)(O)C[C@@H](C)NC[C@H](C)[C@@H](O)[C@]1(C)O [syzx-20, (2R,3S,4R,5S,8R,10R,11R,12S,13S,14R)-13-[(2,6-dideoxy-3-C-methyl-3-O-methyl-4-C-[(4-chlorolbenzylamino)methyl]-α-L-ribopyranosyl)oxy]-2-ethyl-3,4,10-trihydroxy-3,5,8,10,12,14-hexamethyl-11-[[3,4,6-trideoxy-3-(dimethylamino)-β-D-xylo-hexopyranosy]oxy]-1-oxa-7-azacyclopentadecan-15-one] | – | – |
| 0.25 ug/mi | 0.25 ug/mi | 0.5 ug/mi | 0.25 ug/mi | 0.25 ug/mi | CCCN1C[C@H](C)[C@@H](O)[C@](C)(O)[C@@H](CC)OC(=O)[C@H](C)[C@@H](O[C@H]2C[C@@](C)(OC)[C@](O)(CNCC)[C@H](C)O2)[C@H](C)[C@@H](O[C@@H]2O[C@H](C)C[C@H](N(C)C)[C@H]2O)[C@](C)(O)C[C@H]1C [syzx-110] | – | – |
| 0.25 ug/mi | 4 ug/mi | 8 ug/mi | 4 ug/mi | 2 ug/mi | CCCN1C[C@H](C)[C@@H](O)[C@](C)(O)[C@@H](CC)OC(=O)[C@H](C)[C@@H](O[C@H]2C[C@@](C)(OC)[C@](O)(CNc3cccnc3Cl)[C@H](C)O2)[C@H](C)[C@@H](O[C@@H]2O[C@H](C)C[C@H](N(C)C)[C@H]2O)[C@](C)(O)C[C@H]1C [syzx-218] | – | – |
| ≦0.25 ug/mi | 2 ug/mi | 0.25 ug/mi | ≦0.25 ug/mi | ≦0.25 ug/mi | CC[C@H]1OC(=O)[C@H](C)[C@@H](O[C@H]2C[C@@](C)(OC)[C@](O)(CNc3ccc(C)c(C)c3)[C@H](C)O2)[C@H](C)[C@@H](O[C@@H]2O[C@H](C)C[C@H](N(C)C)[C@H]2O)[C@](C)(O)C[C@@H](C)NC[C@H](C)[C@@H](O)[C@]1(C)O [syzx-84, (2R,3S,4R,5S,8R,10R,11R,12S,13S,14R)-13-[(2,6-dideoxy-3-C-methyl-3-O-methyl-4-C-[(3,4-dimethylphenyl-amino)-methyl]-α-L-ribopyranosyl)oxy]-2-ethyl-3,4,10-trihydroxy-3,5,8,10,12,14-hexamethyl-11-[[3,4,6-trideoxy-3-(dimethylamino)-β-D-xylo-hexopyranosy]oxy]-1-oxa-7-azacyclopentadecan-15-one] | – | – |

Second part, the compound before the results:

| Compound | MIC values, Streptococcus equines CVCC556 [2] | MIC values, Actinobacillus pleuropneumoniae CVCC262 [3] | MIC values, Pasteurella multocida CVCC399 [4] | MIC values, Haemophilus parasuis [5] | MIC values, Staphylococcus aureus CVCC26003 [6] | Animal survival rate [1] | Animal survival rate (surviving/total animals) [1] |
| --- | --- | --- | --- | --- | --- | --- | --- |
| CC[C@@H]1OC(=O)[C@H](C)[C@H](OC2C[C@@](C)(OC)[C@](O)(CNCc3cccc(OC)c3)[C@H](C)O2)[C@@H](C)[C@@H](O[C@@H]2O[C@H](C)C[C@H](N(C)C)[C@H]2O)[C@](C)(O)C[C@@H](C)NC[C@@H](C)[C@H](O)[C@]1(C)O (stereo partly drawn) [syzx-35, (2R,3S,4R,5S,8R,10R,11R,12S,13S,14R)-13-[(2,6-dideoxy-3-C-methyl-3-O-methyl-4-C-[[3-methoxybenzyl-amino]-methyl]-α-L-ribopyranosyl)oxy]-2-ethyl-3,4,10-trihydroxy-3,5,8,10,12,14-hexamethyl-11-[[3,4,6-trideoxy-3-(dimethylamino)-β-D-xylo-hexopyranosy]oxy]-1-oxa-7-azacyclopentadecan-15-one] | – | – | – | – | – | 70% | 7/10 |
| CCCN1C[C@H](C)[C@@H](O)[C@](C)(O)[C@@H](CC)OC(=O)[C@H](C)[C@@H](O[C@H]2C[C@@](C)(OC)[C@](O)(CNCC3CCCCC3)[C@H](C)O2)[C@H](C)[C@@H](O[C@@H]2O[C@H](C)C[C@H](N(C)C)[C@H]2O)[C@](C)(O)C[C@H]1C [syzx-167] | 0.25 ug/mi | 2 ug/mi | 4 ug/mi | 2 ug/mi | 2 ug/mi | – | – |
| CCCN1C[C@H](C)[C@@H](O)[C@](C)(O)[C@@H](CC)OC(=O)[C@H](C)[C@@H](O[C@H]2C[C@@](C)(OC)[C@](O)(CNCc3cnc(C)cn3)[C@H](C)O2)[C@H](C)[C@@H](O[C@@H]2O[C@H](C)C[C@H](N(C)C)[C@H]2O)[C@](C)(O)C[C@H]1C [syzx-165] | 0.25 ug/mi | 0.25 ug/mi | 1 ug/mi | 0.25 ug/mi | 0.25 ug/mi | – | – |
| CCCCCCNC[C@]1(O)[C@H](C)O[C@@H](O[C@H]2[C@H](C)[C@@H](O[C@@H]3O[C@H](C)C[C@H](N(C)C)[C@H]3O)[C@](C)(O)C[C@@H](C)N(CCC)C[C@H](C)[C@@H](O)[C@](C)(O)[C@@H](CC)OC(=O)[C@@H]2C)C[C@@]1(C)OC [syzx-115] | 0.25 ug/mi | 0.25 ug/mi | 0.5 ug/mi | 0.25 ug/mi | 0.25 ug/mi | – | – |
| CCCN1C[C@H](C)[C@@H](O)[C@](C)(O)[C@@H](CC)OC(=O)[C@H](C)[C@@H](O[C@H]2C[C@@](C)(OC)[C@](O)(CNC(C)CCCN(CC)CC)[C@H](C)O2)[C@H](C)[C@@H](O[C@@H]2O[C@H](C)C[C@H](N(C)C)[C@H]2O)[C@](C)(O)C[C@H]1C (some centres unmarked) [syzx-159] | 0.25 ug/mi | 0.25 ug/mi | 0.5 ug/mi | 0.25 ug/mi | 0.5 ug/mi | – | – |
